Measurements published in patent publication US20120178124A1, “STEROL SIDE CHAIN-CLEAVING ENZYME PROTEIN AND USE THEREOF” (MITSUBISHI CHEMICAL CORPORATION, priority 2009, published 2012).
Like-named read-outs stand apart in the source and are kept apart here.

Experiments:
[1] = test system: CYP204A1; conditions: strain BP172, same reaction as Example 6 (28° C., 5 hours)
Method: Novosphingobium aromaticivorans (ATCC 700278) was inoculated into an L medium, and it was then cultured at 30° C. for 2 days. Thereafter, genomic DNA was extracted from the cell mass obtained in the same manner as that of Example 1. A fragment comprising a CYPSS204A1 gene and a ferredoxin gene located downstream thereof was amplified from the above-described genomic DNA by using a primer CYP-5F (SEQ ID NO: 9) and a primer CYP-6R (SEQ ID NO: 10) and also using La Taq polymerase (manufactured by Takara Bio INC.). The temperature conditions applied during this operation were 94° C./3 min, 30 cycles of (98° C./20 sec, 63° C./30 sec, and 68° C./2 min), and 72° C./5 min.
Escherichia coli BL21(DE3) was transformed with this plasmid, and the obtained cell strain was named as BP172.
The Escherichia coli expression strain BP215 was inoculated into 2 ml of an M9 mix medium (Na2HPO4: 0.68%, KH2PO4: 0.3%, NaCl: 0.05%, NH4C;: 0.01%, Casamino acid: 1%, D-Glucose: 0.4%, CaCl2: 0.1 mM, MgCl2: 1 mM, Thiamine: 0.002%, FeSO4: 0.1 mM, Carbenicillin: 0.005%), and it was then subjected to shaking culture at 30° C. for 17 hours, so as to obtain pre-culture solution. 0.25 ml of this pre-culture solution was inoculated into 25 ml of the main culture medium (Na2HPO4: 0.68%, KH2PO4: 0.3%, NaCl: 0.05%, NH4Cl: 0.01%, Casamino acid: 1%, CaCl2: 0.1 mM, MgCl2: 1 mM, Thiamine: 0.002%, FeSO4: 0.1 mM, Carbenicillin: 0.005%, Overnight Express™ solution: 7%, 5-Aminolevlic acid: 0.008%) using Overnight Express™ Autoinduction System (Novagen Cat. No. 71300-4), and it was then subjected to shaking culture at 25° C. for 24 hours. 5 ml of the obtained main culture solution was centrifuged (3500 rpm, 10 minutes) to obtain cell mass, and 1 ml of CV2 buffer (50 mM (pH) potassium phosphate buffer containing glycerol: 2%, carbenicillin: 0.005%, and isopropyl β-D-1-thiogalactopyranoside: 0.1 mM) was added to the obtained cell mass. Thereafter, 0.01 ml of the methanol solution of 1% 4-cholesten-3-one and 0.02 ml of an aqueous solution of 25% methyl-β-cyclodextrin were added to the mixed solution, and the obtained mixture was then shaken at 28° C. for 5 hours for the reaction. After completion of the reaction, 4 ml of methanol was added to the reaction solution, and they were then fully mixed. The obtained mixture was centrifuged, and the upper layer was then analyzed by HPLC.
As substrates, 4-cholesten-3-one, cholesterol, 7-dehydrocholesterol, ergosterol, 13-sitosterol, stigmasterol, campesterol, desmosterol, (20S)-20-hydroxycholest-4-en-3-one, (22R)-22-hydroxycholest-4-en-3-one, (20R,22R)-20,22-dihydroxycholest-4-en-3-one, and (20R,22S)-20,22-dihydroxycholest-4-en-3-one were used. Each substrate was subjected to the same reaction as that of Example 6, separately, and the generated product was then analyzed by HPLC.

[2] = test system: CYP204A1; experiment: Conversion of 4-cholesten-3-one to progesterone by Bacillus megaterium cell mass expressing the CYP204A1 gene; conditions: Bacillus megaterium pXYL204CB cell suspension, 30° C., 24 hours

With `CC(C)CCC[C@@H](C)[C@H]1CC[C@H]2[C@@H]3CCC4=CC(=O)CC[C@]4(C)[C@H]3CC[C@]12C` [4-cholesten-3-one] as the molecule, how does the Conversion rate [1] read?
The Conversion rate was 84.0%.

What about the Conversion rate ([1]; listed as 4Chol) of the same molecule?
The Conversion rate was 84%.

And the “conversion rate of 4-cholesten-3-one to progesterone” value [2]?
Its value is 24.5%.
